Our source for the T/C values is PubChem BioAssay AID330 (DTP/NCI, 2004).

Values joined by “and” are separate entries in the source; they are usually repeats but may differ in a detail not shown here. Equal values may be shown once. Inconclusive results and toxic doses are left out.

For the assay, the system named is P388 leukemia ip, CD2F1 mice, survival T/C. The assay can be described thus: NCI In Vivo Anticancer Drug Screen. Data for tumor model P388 Leukemia (intraperitoneal) in CD2F1 (CDF1) mice. As to conditions: endpoint: median survival time, higher = longer survival. An outline of the steps: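 Mice carrying the transplanted tumor received test compound or vehicle. Survival was recorded in each group, and the value is the treated-group measurement divided by that of the vehicle-treated control group.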

[1] abbreviates: dose: 12.5 mg/kg/injection, schedule: Q01DX009 (ip), vehicle: Klucel (hydroxypropylcellulose) (HPC).
The mark [2] stands for this setting: dose: 25.0 mg/kg/injection, schedule: Q01DX009 (ip), vehicle: Klucel (hydroxypropylcellulose) (HPC).
Setting [3] is: dose: 50.0 mg/kg/injection, schedule: Q01DX009 (ip), vehicle: Klucel (hydroxypropylcellulose) (HPC).
Setting [4] is: dose: 100.0 mg/kg/injection, schedule: Q01DX009 (ip), vehicle: Klucel (hydroxypropylcellulose) (HPC).
Setting [5] is: dose: 50.0 mg/kg/injection, schedule: Q01DX009 (ip), vehicle: saline with Tween-80.
The mark [6] stands for this setting: dose: 100.0 mg/kg/injection, schedule: Q01DX009 (ip), vehicle: saline with Tween-80.
Setting [7] is: dose: 200.0 mg/kg/injection, schedule: Q01DX009 (ip), vehicle: saline with Tween-80.
Setting [8] is: dose: 12.5 mg/kg/injection, schedule: Q04DX003 (ip), vehicle: saline.
Where [9] appears, read: dose: 25.0 mg/kg/injection, schedule: Q04DX003 (ip), vehicle: saline.
Where [10] appears, read: dose: 50.0 mg/kg/injection, schedule: Q04DX003 (ip), vehicle: saline.
Setting [11] is: dose: 25.0 mg/kg/injection, schedule: Q01DX009 (ip), vehicle: saline with Tween-80.
The mark [12] stands for this setting: dose: 100.0 mg/kg/injection, schedule: Q01DX001 (ip), vehicle: saline with Tween-80.
Where [13] appears, read: dose: 200.0 mg/kg/injection, schedule: Q01DX001 (ip), vehicle: saline with Tween-80.
[14] abbreviates: dose: 400.0 mg/kg/injection, schedule: Q01DX001 (ip), vehicle: saline with Tween-80.

On to `CC1(C)CCC2=C(O1)c1ccccc1C(=O)C2=O`, for which the T/C under setting [1] is 96 % of control; the T/C under setting [2] is 105 % of control and 94 % of control; the T/C under setting [3] is 114 % of control and 96 % of control; the T/C under setting [4] was 115 % of control.
On to `COC(=O)c1cc2c(s1)C(=O)c1ccccc1-2`, for which the T/C reads like this: under setting [5], 91 % of control; under setting [6], 103 % of control; under setting [7], 100 % of control.
In the case of `CCCCCCCCC[N+](C)([O-])CCCCCC[N+](C)([O-])CCCCCCCCC` (stereo not given), the T/C was 103 % of control under setting [8], 96 % of control under setting [9] and 93 % of control under setting [10].
Regarding `CCn1c(=O)c2[nH]c(Cl)nc2n(C)c1=O`, the T/C reads like this: (dose: 16.0 mg/kg/injection, schedule: Q01DX009 (ip), vehicle: Klucel (hydroxypropylcellulose) (HPC)) 111 % of control; under setting [2], 102 % of control; (dose: 32.0 mg/kg/injection, schedule: Q01DX009 (ip), vehicle: Klucel (hydroxypropylcellulose) (HPC)) 107 % of control; under setting [3], 94 % of control; (dose: 64.0 mg/kg/injection, schedule: Q01DX009 (ip), vehicle: Klucel (hydroxypropylcellulose) (HPC)) 102 % of control.
As to `COc1ccc(CCNC2(C#N)CCCCC2)cc1OC`, the T/C is, setting by setting: under setting [3], 98 % of control; under setting [4], 102 % of control.
`CCN(CC)CCNC(=O)c1nn(C)c(=S)[nH]c1=O`: the T/C runs as follows: (dose: 100.0 mg/kg/injection, schedule: Q04DX002 (ip), vehicle: Klucel (hydroxypropylcellulose) (HPC)) 93 % of control; (dose: 200.0 mg/kg/injection, schedule: Q04DX002 (ip), vehicle: Klucel (hydroxypropylcellulose) (HPC)) 93 % of control; (dose: 400.0 mg/kg/injection, schedule: Q04DX002 (ip), vehicle: Klucel (hydroxypropylcellulose) (HPC)) 101 % of control.
For the molecule `C=CC(c1ccccc1)C(O)(Cc1ccccc1)Cc1ccccc1` (stereo not given), the T/C is, setting by setting: (dose: 6.25 mg/kg/injection, schedule: Q01DX009 (ip), vehicle: DMSO) 104 % of control; (dose: 12.5 mg/kg/injection, schedule: Q01DX009 (ip), vehicle: DMSO) 99 % of control; (dose: 25.0 mg/kg/injection, schedule: Q01DX009 (ip), vehicle: DMSO) 95 % of control.
For the molecule `CCOc1c(N=Nc2ccc(Cl)cc2)c(C)nn1C(=S)SC`, the T/C (dose: 7.5 mg/kg/injection, schedule: Q01DX005 (ip), vehicle: Klucel + Tween-80) is 92 % of control; the T/C (dose: 15.0 mg/kg/injection, schedule: Q01DX005 (ip), vehicle: Klucel + Tween-80) was 86 % of control; the T/C (dose: 30.0 mg/kg/injection, schedule: Q01DX005 (ip), vehicle: Klucel + Tween-80) is 86 % of control; the T/C (dose: 60.0 mg/kg/injection, schedule: Q01DX005 (ip), vehicle: Klucel + Tween-80) was 94 % of control.
As to `O=c1[nH]cnc2c1nc(Br)n2C1OC(CO)C(O)C1O` (stereo not given), the T/C is, setting by setting: (dose: 6.25 mg/kg/injection, schedule: Q01DX009 (ip), vehicle: Klucel (hydroxypropylcellulose) (HPC)) 94 % of control; under setting [1], 94 % of control; under setting [2], 94 % of control; under setting [3], 97 % of control; under setting [4], 94 % of control.
Turning to `Nc1cc(=O)[nH]c(=O)[nH]1`, the T/C is, setting by setting: under setting [11], 99 % of control; under setting [5], 100 % of control; under setting [6], 100 % of control; under setting [7], 98 % of control.
For the molecule `CSC1SCC2C(=O)N(C)C(C(C)C)C(=O)OCC(NC(=O)c3cnc4ccccc4n3)C(=O)NC(C)C(=O)N(C)C1C(=O)N(C)C(C(C)C)C(=O)OCC(NC(=O)c1cnc3ccccc3n1)C(=O)NC(C)C(=O)N2C` (stereo not given), the T/C is 100 % of control (dose: 0.5 micrograms/kg/injection, schedule: Q01DX010 (ip), vehicle: saline); 97 % of control (dose: 30.0 micrograms/kg/injection, schedule: Q01DX009 (oral), vehicle: saline with Tween-80); 205 % of control (dose: 60.0 micrograms/kg/injection, schedule: Q01DX009 (ip), vehicle: saline with Tween-80); 101 % of control (dose: 60.0 micrograms/kg/injection, schedule: Q01DX009 (oral), vehicle: saline with Tween-80); 96 % of control (dose: 120.0 micrograms/kg/injection, schedule: Q01DX009 (oral), vehicle: saline with Tween-80); 117 % of control (dose: 240.0 micrograms/kg/injection, schedule: Q01DX009 (ip), vehicle: saline with Tween-80). Besides, the T/C is 99 % of control (dose: 240.0 micrograms/kg/injection, schedule: Q01DX009 (oral), vehicle: saline with Tween-80) and 96 % of control (dose: 480.0 micrograms/kg/injection, schedule: Q01DX009 (oral), vehicle: saline with Tween-80).
For the molecule `Nc1nc(-c2ccccc2)cc(-c2cc(-c3ccccc3)nc(N)n2)n1`, the T/C (dose: 60.0 mg/kg/injection, schedule: Q01DX005 (ip), vehicle: saline) was 100 % of control; the T/C (dose: 120.0 mg/kg/injection, schedule: Q01DX005 (ip), vehicle: saline) is 102 % of control; the T/C (dose: 240.0 mg/kg/injection, schedule: Q01DX005 (ip), vehicle: saline) was 100 % of control.
As to `C[O][Sn]([CH3])([CH3])[O][Sn]([CH3])([CH3])[Cl]`, the T/C by setting is: (dose: 6.25 mg/kg/injection, schedule: Q04DX003 (ip), vehicle: saline) 103 % of control and 106 % of control; under setting [8], 100 % of control and 101 % of control and 96 % of control; under setting [9], 99 % of control and 100 % of control and 109 % of control; under setting [10], 102 % of control and 120 % of control and 97 % of control.
Consider `OC(c1ccccc1I1OC(C(F)(F)F)(C(F)(F)F)c2ccccc21)(C(F)(F)F)C(F)(F)F` (tested in a mixture with another compound), for which the T/C reads like this: (dose: 1.56 mg/kg/injection, schedule: Q01DX005 (ip), vehicle: Klucel (hydroxypropylcellulose) (HPC)) 99 % of control; (dose: 3.12 mg/kg/injection, schedule: Q01DX005 (ip), vehicle: Klucel (hydroxypropylcellulose) (HPC)) 93 % of control; (dose: 6.25 mg/kg/injection, schedule: Q01DX005 (ip), vehicle: Klucel (hydroxypropylcellulose) (HPC)) 98 % of control.
`CC1(C)CCNc2ccccc2S1`: the T/C under setting [12] is 103 % of control, the T/C under setting [13] is 103 % of control and the T/C under setting [14] was 100 % of control.
Regarding `CC1CC(=O)OC(C(=O)c2ccccc2)N1c1ccc(C(F)(F)F)cc1N` (stereo not given), the T/C runs as follows: (dose: 60.0 mg/kg/injection, schedule: Q01DX005 (ip), vehicle: saline with Tween-80) 110 % of control; (dose: 120.0 mg/kg/injection, schedule: Q01DX005 (ip), vehicle: saline with Tween-80) 108 % of control; (dose: 240.0 mg/kg/injection, schedule: Q01DX005 (ip), vehicle: saline with Tween-80) 109 % of control.
Take `CC(C)N1C(=O)C2C3C=CC(C2C1=O)C1C2C(=O)N(C(C)C)C(=O)C2C31` (stereo not given): the T/C reads like this: under setting [12], 99 % of control; under setting [13], 96 % of control; under setting [14], 89 % of control.
Consider `BrCc1cccnc1`, for which the T/C is 103 % of control (dose: 12.5 mg/kg/injection, schedule: Q01DX005 (ip), vehicle: saline); 103 % of control (dose: 25.0 mg/kg/injection, schedule: Q01DX005 (ip), vehicle: saline); 103 % of control and 110 % of control (dose: 50.0 mg/kg/injection, schedule: Q01DX005 (ip), vehicle: saline).
For the molecule `O=C1Cc2ccccc2N1C(=O)c1ccccc1Br`, the T/C reads like this: (dose: 100.0 mg/kg/injection, schedule: Q01DX001 (ip), vehicle: Klucel (hydroxypropylcellulose) (HPC)) 106 % of control; (dose: 200.0 mg/kg/injection, schedule: Q01DX001 (ip), vehicle: Klucel (hydroxypropylcellulose) (HPC)) 98 % of control; (dose: 400.0 mg/kg/injection, schedule: Q01DX001 (ip), vehicle: Klucel (hydroxypropylcellulose) (HPC)) 90 % of control.
With `COC(=O)NN(C(=O)OC)C12CCCC1N(C(=O)OC)N(C(=O)OC)c1c2ccc2ccccc12` (stereo not given), the T/C reads like this: (dose: 60.0 mg/kg/injection, schedule: Q01DX005 (ip), vehicle: Klucel (hydroxypropylcellulose) (HPC)) 103 % of control; (dose: 120.0 mg/kg/injection, schedule: Q01DX005 (ip), vehicle: Klucel (hydroxypropylcellulose) (HPC)) 103 % of control; (dose: 240.0 mg/kg/injection, schedule: Q01DX005 (ip), vehicle: Klucel (hydroxypropylcellulose) (HPC)) 96 % of control.
In the case of `Cc1cc(N(C)C)nc2cc(N)ccc12`, the T/C was 103 % of control (dose: 12.5 mg/kg/injection, schedule: Q01DX009 (ip), vehicle: saline with Tween-80); 111 % of control under setting [11]; 101 % of control and 89 % of control under setting [5].
